Test results: the NIST ThermoML archive (doi:10.1016/j.jct.2012.08.009)
± gives the expanded uncertainty stated by the source.

How the values were obtained:
[1] = Liquid; for mass density: 293.15 K, 101.33 kPa, Pycnometric method; for Normal boiling temperature: Ebulliometric method (Recirculating still)
[2] = refractive index (Na D-line) (dimensionless); details: 293.15 K; 101.33 kPa; Liquid; Standard Abbe refractometry
[3] = relative permittivity at zero frequency (dimensionless); details: 293.15 K; 91.3 kPa; Liquid; Coaxial cylinder capacitor
[4] = relative permittivity at zero frequency (dimensionless); xn = mol fraction of the nth substance listed; details: 293.15 K, 91.3 kPa, Liquid, Coaxial cylinder capacitor

Row | mass density [1] [kg/m3] | Normal boiling temperature [1] [°C] | refractive index [2] | relative permittivity at zero frequency [3] | relative permittivity at zero frequency ([4]; x1 = 0.05) | relative permittivity at zero frequency ([4]; x1 = 0.1) | relative permittivity at zero frequency ([4]; x1 = 0.2) | relative permittivity at zero frequency ([4]; x1 = 0.3) | relative permittivity at zero frequency ([4]; x1 = 0.4) | relative permittivity at zero frequency ([4]; x1 = 0.5) | relative permittivity at zero frequency ([4]; x1 = 0.6) | relative permittivity at zero frequency ([4]; x1 = 0.7) | relative permittivity at zero frequency ([4]; x1 = 0.8) | relative permittivity at zero frequency ([4]; x1 = 0.9) | relative permittivity at zero frequency ([4]; x1 = 0.95) | relative permittivity at zero frequency ([4]; x1 = 0.98) | relative permittivity at zero frequency ([4]; x1 = 1) | Compound | relative permittivity at zero frequency ([4]; x2 = 0)
1 | 793 ± 2.1 | 64.70 ± 0.51 | 1.328 ± 0.0027 | 33 ± 0.11 |  |  |  |  |  |  |  |  |  |  |  |  |  | CO [methanol] | 
2 |  |  |  |  | 74.7 ± 0.24 | 69.4 ± 0.22 | 59.98 ± 0.19 | 52.2 ± 0.17 | 46.1 ± 0.15 | 41.1 ± 0.13 | 37.01 ± 0.12 | 33.5 ± 0.11 | 30.36 ± 0.1 | 27.55 ± 0.09 | 26.28 ± 0.08 | 25.53 ± 0.08 | 25.02 ± 0.08 | CCO [ethanol] + O | 
3 |  |  |  |  | 76.058 ± 0.24 | 72.27 ± 0.23 | 65.58 ± 0.21 | 59.67 ± 0.19 | 54.7 ± 0.17 | 50.22 ± 0.16 | 46.22 ± 0.15 | 42.54 ± 0.14 | 39.18 ± 0.12 | 36.1 ± 0.12 | 34.65 ± 0.11 | 33.72 ± 0.11 | 33 ± 0.11 | CO [methanol] + O | 
4 | 790 ± 2.1 | 78.20 ± 0.51 | 1.3612 ± 0.0028 | 25.02 ± 0.08 |  |  |  |  |  |  |  |  |  |  |  |  |  | CCO [ethanol] | 

More lines, now with the values behind:

Row | Compound | mass density [1] [kg/m3] | Normal boiling temperature [1] [°C] | refractive index [2] | relative permittivity at zero frequency [3] | relative permittivity at zero frequency ([4]; x1 = 0.05) | relative permittivity at zero frequency ([4]; x1 = 0.1) | relative permittivity at zero frequency ([4]; x1 = 0.2) | relative permittivity at zero frequency ([4]; x1 = 0.3) | relative permittivity at zero frequency ([4]; x1 = 0.4) | relative permittivity at zero frequency ([4]; x1 = 0.5) | relative permittivity at zero frequency ([4]; x1 = 0.6) | relative permittivity at zero frequency ([4]; x1 = 0.7) | relative permittivity at zero frequency ([4]; x1 = 0.8) | relative permittivity at zero frequency ([4]; x1 = 0.9) | relative permittivity at zero frequency ([4]; x1 = 0.95) | relative permittivity at zero frequency ([4]; x1 = 0.98) | relative permittivity at zero frequency ([4]; x1 = 1) | relative permittivity at zero frequency ([4]; x2 = 0)
5 | O [water] | 999 ± 2.2 | 100.0 ± 0.5 | 1.3342 ± 0.0028 | 79.99 ± 0.25 |  |  |  |  |  |  |  |  |  |  |  |  |  | 
6 | O [water] + CC(=O)O |  |  |  |  |  |  |  |  |  |  |  |  |  |  |  |  |  | 79.99 ± 0.25
7 | O [water] + CCO |  |  |  |  |  |  |  |  |  |  |  |  |  |  |  |  |  | 79.99 ± 0.25
8 | O [water] + CO |  |  |  |  |  |  |  |  |  |  |  |  |  |  |  |  |  | 79.99 ± 0.25
9 | CC(=O)O [acetic acid] + O |  |  |  |  | 73.5 ± 0.23 | 67.7 ± 0.22 | 58 ± 0.18 | 49.4 ± 0.16 | 41.8 ± 0.13 | 34.9 ± 0.11 | 28.5 ± 0.09 | 22.41 ± 0.07 | 16.55 ± 0.05 | 11.11 ± 0.04 | 8.64 ± 0.03 | 7.25 ± 0.02 | 6.15 ± 0.02 | 
10 | CC(=O)O [acetic acid] | 1055 ± 4.1 | 118.0 ± 0.51 | 1.372 ± 0.0028 | 6.15 ± 0.02 |  |  |  |  |  |  |  |  |  |  |  |  |  | 
